This is an account of results in ChEMBL document CHEMBL1125988, “Restricted rotation analogs of decarboxylated S-adenosylmethionine as inhibitors of polyamine biosynthesis” (Bioorg Med Chem Lett, 1991).

Data set [1] is described as follows: Lethal dose of compound towards active site probes for spermidine and spermine synthase in L1210 cultured cell assay,. In kind it is toxicity, cell-based. The following applies: mouse, L1210 cells; read-out: LD50 (the source's name).
Data set [2] has as its system L1210. The experiment in a line: Cellular polyamine (SPD) content was determined in L1210 cells. The data set is classed as functional, Mus musculus.
In data set [3] the test system is L1210. Description: S-adenosyl-methionine decarboxylase activity was measured by the enzymatic decarboxylation of L-[14C-COOH]-methionine as nmol CO2 produced per hour per mg of protein in L1210 cells. The data set is classed as functional, Mus musculus.
The test system of data set [4] is L1210. Description: Ornithine decarboxylase activity was measured by the enzymatic decarboxylation of L-[14C-COOH]-ornithine as nmol CO2 produced per hour per mg of protein in L1210 cells. In kind it is functional, Mus musculus.
The subject of data set [5] is L1210. Description: Compound was evaluated for % of growth control in cultured L1210 cells. The data set is classed as functional, Mus musculus.
In data set [6] the test system is L1210. The experiment in a line: Tested for inhibitory activity on cultured L1210 cells. The following applies: Mus musculus. The data set is classed as functional, cell-based.
In data set [7] the test system is L1210. Description: Cellular polyamine (spermine) content was determined in L1210 cells. In kind it is functional, Mus musculus.
Data set [8] deals with L1210. Description: Cellular polyamine (putrescine) content was determined in L1210 cells. The data set is classed as functional, Mus musculus.

For the molecule `Nc1ncnc2c1ncn2[C@@H]1O[C@H](CSC2CCNC2)[C@@H](O)[C@H]1O` (stereo partly specified), the CC50 in data set [1] was 100 µM. Also, the figures for the Cellular content in the data set with L1210 [2], with L1210 [7] and in the data set with L1210 [8] were 410 pM (10e6*cells)-1, 1000 pM (10e6*cells)-1 and 37 pM (10e6*cells)-1, respectively. Further, the Activity in the data set with L1210 [3] was 367 (nM of CO2) hr-1 mg-1; with L1210 [4], 2.98 (nM of CO2) hr-1 mg-1. Besides, in the data set on L1210 [5], the Growth is recorded as 46%. This molecule returned an IC50 with L1210 [6] of 100 µM.

As to `Br.C[S+](C[C@H]1O[C@@H](n2cnc3c(N)ncnc32)[C@H](O)[C@@H]1O)C1CCNC1.[Br-]` (stereo partly specified), in data set [1], the CC50 is 1000 µM. For the same molecule, the Cellular content is reported as 208 pM (10e6*cells)-1 with L1210 [2], 1290 pM (10e6*cells)-1 in the data set on L1210 [7] and 170 pM (10e6*cells)-1 in the data set on L1210 [8]. In addition, the values for the Activity in the data set on L1210 [3] and in the data set with L1210 [4] were 500 (nM of CO2) hr-1 mg-1 and 6.16 (nM of CO2) hr-1 mg-1, respectively. In the data set with L1210 [5], this molecule had a Growth of 58%. This molecule had an IC50 with L1210 [6] of 1000 µM.
